Results taken from patent US4442044A, “Process for preparing monoesters and diesters of N-alkyl substituted amino methyl phosphonic acid” (priority 1983, dated 1984).

Legend:
Test in all cases: post-emergent herbicidal activity, greenhouse
Type in all cases: in vivo
Barnyardgrass = test system: Barnyardgrass
How it was run: (§1)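 Seeds or propagules sown in compacted top soil, grown 2–3 weeks in greenhouse, then sprayed with compound solution/suspension containing ~0.4% emulsifier at tabulated rates. Injury scored visually versus untreated controls at ~2 and 4 weeks after treatment, expressed as a herbicidal activity index.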

Canada Thistle = details: Table I, 4 WAT
How it was run: as §1

Cocklebur = test system: Cocklebur
How it was run: as §1

Crabgrass = details: Table II
How it was run: as §1

Downy Brome = test system: Downy Brome
How it was run: as §1

Hemp Sesbania = details: Table II
How it was run: as §1

Johnsongrass = details: Table I, 4 WAT
How it was run: as §1

Lambsquarters = test system: Lambsquarters
How it was run: as §1

Morningglory = test system: Morningglory
How it was run: as §1

Panicum Spp = details: Table II
How it was run: as §1

Quackgrass = details: Table I, 4 WAT
How it was run: as §1

Rice = details: Table II
How it was run: as §1

Smartweed = test system: Smartweed
How it was run: as §1

Sorghum = details: Table II
How it was run: as §1

Soybean = details: Table II
How it was run: as §1

Sugar Beet = details: Table II
How it was run: as §1

Velvetleaf = test system: Velvetleaf
How it was run: as §1

Wheat = details: Table II
How it was run: as §1

Wild Buckwheat = details: Table II
How it was run: as §1

Yellow Nutsedge = details: Table I, 4 WAT
How it was run: as §1

CC(C#N)OP(=O)(O)CNCC(=O)OCc1ccccc1 (stereo not shown) [Example 10, glycine, N-[[(1-cyanoethoxy)hydroxyphosphinyl]methyl]-,phenylmethyl ester]
post-emergent herbicidal activity index (Barnyardgrass; Table I, 4 WAT, 5.6 kg/h): 2 (50-74% control)
post-emergent herbicidal activity index (Barnyardgrass; Table I, 4 WAT, 11.2 kg/h): 3 (75-99% control)
post-emergent herbicidal activity index (Barnyardgrass; Table II, 2 WAT, 0.011 kg/h): 0 (0-24% control)
post-emergent herbicidal activity index (Barnyardgrass; Table II, 2 WAT, 0.056 kg/h): 0 (0-24% control)
post-emergent herbicidal activity index (Barnyardgrass; Table II, 4 WAT, 0.28 kg/h): 2 (50-74% control)
post-emergent herbicidal activity index (Barnyardgrass; Table II, 4 WAT, 1.12 kg/h): 2 (50-74% control)
post-emergent herbicidal activity index (Barnyardgrass; Table II, 4 WAT, 5.6 kg/h): 3 (75-99% control)
post-emergent herbicidal activity index (Canada Thistle; 5.6 kg/h): 1 (25-49% control)
post-emergent herbicidal activity index (Canada Thistle; 11.2 kg/h): 2 (50-74% control)
post-emergent herbicidal activity index (Cocklebur; Table I, 4 WAT, 5.6 kg/h): 2 (50-74% control)
post-emergent herbicidal activity index (Cocklebur; Table I, 4 WAT, 11.2 kg/h): 2 (50-74% control)
post-emergent herbicidal activity index (Cocklebur; Table II, 2 WAT, 0.011 kg/h): 0 (0-24% control)
post-emergent herbicidal activity index (Cocklebur; Table II, 2 WAT, 0.056 kg/h): 0 (0-24% control)
post-emergent herbicidal activity index (Cocklebur; Table II, 4 WAT, 0.28 kg/h): 1 (25-49% control)
post-emergent herbicidal activity index (Cocklebur; Table II, 4 WAT, 1.12 kg/h): 2 (50-74% control)
post-emergent herbicidal activity index (Cocklebur; Table II, 4 WAT, 5.6 kg/h): 3 (75-99% control)
post-emergent herbicidal activity index (Crabgrass; 2 WAT, 0.011 kg/h): 0 (0-24% control)
post-emergent herbicidal activity index (Crabgrass; 2 WAT, 0.056 kg/h): 1 (25-49% control)
post-emergent herbicidal activity index (Crabgrass; 4 WAT, 0.28 kg/h): 4 (100% control)
post-emergent herbicidal activity index (Crabgrass; 4 WAT, 1.12 kg/h): 4 (100% control)
post-emergent herbicidal activity index (Crabgrass; 4 WAT, 5.6 kg/h): 4 (100% control)
post-emergent herbicidal activity index (Downy Brome; Table I, 4 WAT, 5.6 kg/h): 2 (50-74% control)
post-emergent herbicidal activity index (Downy Brome; Table I, 4 WAT, 11.2 kg/h): 1 (25-49% control)
post-emergent herbicidal activity index (Downy Brome; Table II, 2 WAT, 0.011 kg/h): 0 (0-24% control)
post-emergent herbicidal activity index (Downy Brome; Table II, 2 WAT, 0.056 kg/h): 0 (0-24% control)
post-emergent herbicidal activity index (Downy Brome; Table II, 4 WAT, 0.28 kg/h): 1 (25-49% control)
post-emergent herbicidal activity index (Downy Brome; Table II, 4 WAT, 1.12 kg/h): 2 (50-74% control)
post-emergent herbicidal activity index (Downy Brome; Table II, 4 WAT, 5.6 kg/h): 2 (50-74% control)
post-emergent herbicidal activity index (Hemp Sesbania; 2 WAT, 0.011 kg/h): 0 (0-24% control)
post-emergent herbicidal activity index (Hemp Sesbania; 2 WAT, 0.056 kg/h): 0 (0-24% control)
post-emergent herbicidal activity index (Hemp Sesbania; 4 WAT, 1.12 kg/h): 1 (25-49% control)
post-emergent herbicidal activity index (Hemp Sesbania; 4 WAT, 5.6 kg/h): 1 (25-49% control)
post-emergent herbicidal activity index (Johnsongrass; 5.6 kg/h): 0 (0-24% control)
post-emergent herbicidal activity index (Johnsongrass; 11.2 kg/h): 1 (25-49% control)
post-emergent herbicidal activity index (Lambsquarters; Table I, 4 WAT, 5.6 kg/h): 3 (75-99% control)
post-emergent herbicidal activity index (Lambsquarters; Table I, 4 WAT, 11.2 kg/h): 3 (75-99% control)
post-emergent herbicidal activity index (Lambsquarters; Table II, 2 WAT, 0.011 kg/h): 0 (0-24% control)
post-emergent herbicidal activity index (Lambsquarters; Table II, 2 WAT, 0.056 kg/h): 1 (25-49% control)
post-emergent herbicidal activity index (Lambsquarters; Table II, 4 WAT, 0.28 kg/h): 2 (50-74% control)
post-emergent herbicidal activity index (Lambsquarters; Table II, 4 WAT, 1.12 kg/h): 3 (75-99% control)
post-emergent herbicidal activity index (Lambsquarters; Table II, 4 WAT, 5.6 kg/h): 3 (75-99% control)
post-emergent herbicidal activity index (Morningglory; Table I, 4 WAT, 5.6 kg/h): 2 (50-74% control)
post-emergent herbicidal activity index (Morningglory; Table I, 4 WAT, 11.2 kg/h): 2 (50-74% control)
post-emergent herbicidal activity index (Morningglory; Table II, 2 WAT, 0.011 kg/h): 0 (0-24% control)
post-emergent herbicidal activity index (Morningglory; Table II, 2 WAT, 0.056 kg/h): 0 (0-24% control)
post-emergent herbicidal activity index (Morningglory; Table II, 4 WAT, 0.28 kg/h): 2 (50-74% control)
post-emergent herbicidal activity index (Morningglory; Table II, 4 WAT, 1.12 kg/h): 2 (50-74% control)
post-emergent herbicidal activity index (Morningglory; Table II, 4 WAT, 5.6 kg/h): 2 (50-74% control)
post-emergent herbicidal activity index (Panicum Spp; 2 WAT, 0.011 kg/h): 0 (0-24% control)
post-emergent herbicidal activity index (Panicum Spp; 2 WAT, 0.056 kg/h): 0 (0-24% control)
post-emergent herbicidal activity index (Panicum Spp; 4 WAT, 0.28 kg/h): 3 (75-99% control)
post-emergent herbicidal activity index (Panicum Spp; 4 WAT, 1.12 kg/h): 4 (100% control)
post-emergent herbicidal activity index (Panicum Spp; 4 WAT, 5.6 kg/h): 4 (100% control)
post-emergent herbicidal activity index (Quackgrass; 5.6 kg/h): 2 (50-74% control)
post-emergent herbicidal activity index (Quackgrass; 11.2 kg/h): 2 (50-74% control)
post-emergent herbicidal activity index (Rice; 2 WAT, 0.011 kg/h): 0 (0-24% control)
post-emergent herbicidal activity index (Rice; 2 WAT, 0.056 kg/h): 0 (0-24% control)
post-emergent herbicidal activity index (Rice; 4 WAT, 0.28 kg/h): 0 (0-24% control)
post-emergent herbicidal activity index (Rice; 4 WAT, 1.12 kg/h): 1 (25-49% control)
post-emergent herbicidal activity index (Rice; 4 WAT, 5.6 kg/h): 2 (50-74% control)
post-emergent herbicidal activity index (Smartweed; Table I, 4 WAT, 11.2 kg/h): 4 (100% control)
post-emergent herbicidal activity index (Smartweed; Table II, 2 WAT, 0.011 kg/h): 0 (0-24% control)
post-emergent herbicidal activity index (Smartweed; Table II, 2 WAT, 0.056 kg/h): 0 (0-24% control)
post-emergent herbicidal activity index (Smartweed; Table II, 4 WAT, 0.28 kg/h): 4 (100% control)
post-emergent herbicidal activity index (Smartweed; Table II, 4 WAT, 1.12 kg/h): 4 (100% control)
post-emergent herbicidal activity index (Smartweed; Table II, 4 WAT, 5.6 kg/h): 4 (100% control)
post-emergent herbicidal activity index (Sorghum; 2 WAT, 0.011 kg/h): 0 (0-24% control)
post-emergent herbicidal activity index (Sorghum; 2 WAT, 0.056 kg/h): 0 (0-24% control)
post-emergent herbicidal activity index (Sorghum; 4 WAT, 0.28 kg/h): 2 (50-74% control)
post-emergent herbicidal activity index (Sorghum; 4 WAT, 1.12 kg/h): 2 (50-74% control)
post-emergent herbicidal activity index (Sorghum; 4 WAT, 5.6 kg/h): 3 (75-99% control)
post-emergent herbicidal activity index (Soybean; 2 WAT, 0.011 kg/h): 0 (0-24% control)
post-emergent herbicidal activity index (Soybean; 2 WAT, 0.056 kg/h): 1 (25-49% control)
post-emergent herbicidal activity index (Soybean; 4 WAT, 0.28 kg/h): 1 (25-49% control)
post-emergent herbicidal activity index (Soybean; 4 WAT, 1.12 kg/h): 1 (25-49% control)
post-emergent herbicidal activity index (Soybean; 4 WAT, 5.6 kg/h): 3 (75-99% control)
post-emergent herbicidal activity index (Sugar Beet; 2 WAT, 0.011 kg/h): 0 (0-24% control)
post-emergent herbicidal activity index (Sugar Beet; 2 WAT, 0.056 kg/h): 0 (0-24% control)
post-emergent herbicidal activity index (Sugar Beet; 4 WAT, 0.28 kg/h): 3 (75-99% control)
post-emergent herbicidal activity index (Sugar Beet; 4 WAT, 1.12 kg/h): 2 (50-74% control)
post-emergent herbicidal activity index (Sugar Beet; 4 WAT, 5.6 kg/h): 3 (75-99% control)
post-emergent herbicidal activity index (Velvetleaf; Table I, 4 WAT, 5.6 kg/h): 3 (75-99% control)
post-emergent herbicidal activity index (Velvetleaf; Table I, 4 WAT, 11.2 kg/h): 3 (75-99% control)
post-emergent herbicidal activity index (Velvetleaf; Table II, 2 WAT, 0.011 kg/h): 0 (0-24% control)
post-emergent herbicidal activity index (Velvetleaf; Table II, 2 WAT, 0.056 kg/h): 0 (0-24% control)
post-emergent herbicidal activity index (Velvetleaf; Table II, 4 WAT, 0.28 kg/h): 1 (25-49% control)
post-emergent herbicidal activity index (Velvetleaf; Table II, 4 WAT, 1.12 kg/h): 1 (25-49% control)
post-emergent herbicidal activity index (Velvetleaf; Table II, 4 WAT, 5.6 kg/h): 1 (25-49% control)
post-emergent herbicidal activity index (Wheat; 2 WAT, 0.011 kg/h): 0 (0-24% control)
post-emergent herbicidal activity index (Wheat; 2 WAT, 0.056 kg/h): 0 (0-24% control)
post-emergent herbicidal activity index (Wheat; 4 WAT, 0.28 kg/h): 1 (25-49% control)
post-emergent herbicidal activity index (Wheat; 4 WAT, 1.12 kg/h): 2 (50-74% control)
post-emergent herbicidal activity index (Wheat; 4 WAT, 5.6 kg/h): 2 (50-74% control)
post-emergent herbicidal activity index (Wild Buckwheat; 2 WAT, 0.011 kg/h): 0 (0-24% control)
post-emergent herbicidal activity index (Wild Buckwheat; 2 WAT, 0.056 kg/h): 0 (0-24% control)
post-emergent herbicidal activity index (Wild Buckwheat; 4 WAT, 0.28 kg/h): 1 (25-49% control)
post-emergent herbicidal activity index (Wild Buckwheat; 4 WAT, 1.12 kg/h): 2 (50-74% control)
post-emergent herbicidal activity index (Wild Buckwheat; 4 WAT, 5.6 kg/h): 3 (75-99% control)
post-emergent herbicidal activity index (Yellow Nutsedge; 5.6 kg/h): 1 (25-49% control)
post-emergent herbicidal activity index (Yellow Nutsedge; 11.2 kg/h): 1 (25-49% control)
